Source: US20160304547A1, “MACROLIDE COMPOUND” (PULIKE BIOLOGICAL ENGINEERING, INC, priority 2013, published 2016)
≈ marks a conversion by molar mass, not a printed value.

Legend:
[1] = system: Streptococcus pneumoniae CMCC 31203; assay: In vivo antibacterial test, survival of infected BALB/c mice; conditions: BALB/c mice infected i.p. with Streptococcus pneumoniae, 5 mg per kg s.c. via neck for 3 consecutive days, deaths recorded until the seventh day; for responders at 5 mg/kg: CMCC31203, sc, 168 h, read-out: Animal survival rate
[2] = system: Staphylococcus aureus CVCC26003; assay: MIC by mini broth dilution technique (in vitro susceptibility); type: cell-based; conditions: Staphylococcus aureus CVCC26003; broth dilution; read-out: MIC values Staphylococcus aureus CVCC26003
Description: (§1) in vitro tests of susceptibility of the compounds according to the present disclosure against bacterial strains commonly used in laboratories. In accordance with the Performance Standards for Antimicrobial Disk Susceptibility Tests: Approved Standard published by the US National Committee for Clinical Laboratory Standards, the antibactetial activities of compounds prepared according to examples 5 to 187 were tested. The MICs (minimum inhibitory concentration) of the medicaments prepared according to the examples on the following bacterial strains were measured through mini broth dilution technique. Staphylococcus aureus CVCC26003, Streptococcus equines CVCC556. Actinobacillus pleuropneumoniae CVCC262, Haemophilus parasuis, and Pasteurella multocida CVCC399, which were purchased from the Control Institute of Veterinary Bioproducts and Pharmaceuticals, China. Liquid culture medium: CAMHB. […] Solid culture medium: NINA prepared according to the specification of the final product. The strains were taken out of a regrigerator at −20° C. to be revived, and were spreaded by streaking on the solid culture medium with an inoculating loop. The inoculated culture medium was cultured at 35° C. in a constant temperature incubator for 20 h. Monoclonal antibodies were selected from a well-grown culture plate and streaked on the solid culture medium. The inoculated culture medium was cultured at 35° C. in the constant temperature incubator for 20 h. […] A 96-well plate was used, and 100 μl of DMSO was added into each of wells 2 to 11, and 200 μl of ready-prepared medicament solution was added into the 1st well, 100 μl of the medicament solution was extracted from the 1st well and added into the 2nd well. Double dilution was performed until the 11th well, thereby forming 11 gradients. In this case, compound of parent plate was prepared. 3 μl of double diluted medicament solution was extracted with a 12-channel pipettor and added into wells 1-11 of a new disposable 96-well culture plate. The 12th well thereof is a controll well. For each medicament, there are two adjacent rows which are parallel. The transferred compound plate was reserved for later use. […] The dilution ratio was recorded, and the bacterial liquid for the tests was diluted according to the recorded dilution ratio. Subsequently, the bacterial suspension and the liquid culture medium were diluted in the proportion of 1:200. The diluted solution was reserved for later use.

[3] = system: Haemophilus parasuis; assay: as above; type: cell-based; conditions: Glaesserella parasuis; Haemophilus parasuis; broth dilution; read-out: MIC values Haemophilus parasuis
Description: as §1, with “medium:” for “medium: CAMHB.”, “NINA prepared according to the specification of the final product.” left out

[4] = system: Streptococcus equines CVCC556; assay: as above; type: cell-based; conditions: Streptococcus equines CVCC556; broth dilution; read-out: MIC values Streptococcus equines CVCC556
Description: as §1, with “medium:” for “medium: CAMHB.”, “NINA prepared according to the specification of the final product.” left out

[5] = system: Pasteurella multocida CVCC399; assay: as above; type: cell-based; conditions: Pasteurella multocida CVCC399; broth dilution; read-out: MIC values Pasteurella multocida CVCC399
Description: as §1, with “medium:” for “medium: CAMHB.”, “NINA prepared according to the specification of the final product.” left out

[6] = system: Actinobacillus pleuropneumoniae CVCC262; assay: as above; type: cell-based; conditions: Actinobacillus pleuropneumoniae CVCC262, broth dilution; for MIC: read-out: MIC values Actinobacillus pleuropneumoniae CVCC262
Description: as §1, with “medium:” for “medium: CAMHB.”, “NINA prepared according to the specification of the final product.” left out

Row | Structure (SMILES) | Animal survival rate [1] | responders at 5 mg/kg [1] [%] | MIC [2] [µg/mL] | MIC [3] [µg/mL] | MIC [4] [µg/mL] | MIC [5] [µg/mL] | MIC [6] [µg/mL] | MIC values Actinobacillus pleuropneumoniae CVCC262 [6] [ug/mi]
1 | CCCNC[C@]1(O)[C@H](C)O[C@@H](O[C@H]2[C@H](C)[C@@H](O[C@@H]3O[C@H](C)C[C@H](N(C)C)[C@H]3O)[C@](C)(O)C[C@@H](C)NC[C@H](C)[C@@H](O)[C@](C)(O)[C@@H](CC)OC(=O)[C@@H]2C)C[C@@]1(C)OC [syzx-1] | 80% (8/10) | – | – | – | – | – | – | –
2 | CCCCNC[C@]1(O)[C@H](C)OC(O[C@@H]2[C@@H](C)[C@@H](O[C@@H]3O[C@H](C)C[C@H](N(C)C)[C@H]3O)[C@](C)(O)C[C@@H](C)NC[C@@H](C)[C@H](O)[C@](C)(O)[C@H](CC)OC(=O)[C@@H]2C)C[C@@]1(C)OC (stereo partly drawn) [syzx-2] | – | 80 | 4 (≈ 4.88 µM) | 2 (≈ 2.44 µM) | 2 (≈ 2.44 µM) | 2 (≈ 2.44 µM) | 1 (≈ 1.22 µM) | –
3 | CC[C@@H]1OC(=O)[C@H](C)[C@H](OC2C[C@@](C)(OC)[C@](O)(CN(CC)CC)[C@H](C)O2)[C@@H](C)[C@@H](O[C@@H]2O[C@H](C)C[C@H](N(C)C)[C@H]2O)[C@](C)(O)C[C@@H](C)NC[C@@H](C)[C@H](O)[C@]1(C)O (stereo partly drawn) [syzx-3, (2R,3S,4R,5S,8R,10R,11R,12S,13S,14R)-13-[(2,6-dideoxy-3-C -methyl-3-O-methyl-4-C-[(diethylamino)methyl]-α-L-ribopyranosyl)oxy]-2-ethyl-3,4,10-trihydroxy-3,5,8,10,12,14-hexamethyl-11-[[3,4,6-trideoxy-3-(dimethylamino)-β-D-xylo-hexopyranosy]oxy]-1-oxa-7-azacyclopentadecan-15-one] | – | 70 | 0.5 (≈ 0.61 µM) | 0.125 (≈ 0.152 µM) | 0.125 (≈ 0.152 µM) | 0.125 (≈ 0.152 µM) | 1 (≈ 1.22 µM) | –
4 | CC[C@@H]1OC(=O)[C@H](C)[C@H](OC2C[C@@](C)(OC)[C@](O)(CN3CCOCC3)[C@H](C)O2)[C@@H](C)[C@@H](O[C@@H]2O[C@H](C)C[C@H](N(C)C)[C@H]2O)[C@](C)(O)C[C@@H](C)NC[C@@H](C)[C@H](O)[C@]1(C)O (stereo partly drawn) [syzx-5, (2R,3S,4R,5S,8R,10R,11R,12S,13S,14R)-13-[(2,6-dideoxy-3-C-methyl-3-O-methyl-4-C-[(morpholinyl)methyl]-α-L-ribopyranosyl)oxy]-2-ethyl-3,4,10-trihydroxy-3,5,8,10,12,14-hexamethyl-11-[[3,4,6-trideoxy-3-(dimethylamino)-β-D-xylo-hexopyranosy]oxy]-1-oxa-7-azacyclopentadecan-15-one] | – | 70 | 0.5 (≈ 0.599 µM) | 0.5 (≈ 0.599 µM) | ≤ 0.25 | 0.5 (≈ 0.599 µM) | 16 (≈ 19.2 µM) | –
5 | CC[C@@H]1OC(=O)[C@H](C)[C@H](OC2C[C@@](C)(OC)[C@](O)(CNC3CC3)[C@H](C)O2)[C@@H](C)[C@@H](O[C@@H]2O[C@H](C)C[C@H](N(C)C)[C@H]2O)[C@](C)(O)C[C@@H](C)NC[C@@H](C)[C@H](O)[C@]1(C)O (stereo partly drawn) [syzx-6, (2R3S,4R5S,8R,10R,11R,12S,13S,14R)-13-[(2,6-dideoxy-3-C-methyl-3-O-methyl-4-C-[(cyclopropylamino)methyl]-α-L-ribopyranosyl)oxy]-2-ethyl-3,4,10-trihydroxy-3,5,8,10,12,14-hexamethyl-11-[[3,4,6-trideoxy-3-(dimethylamino)-β-D-xylo-hexopyranosy]oxy]-1-oso-7-azacyclopentadecan-15-one] | – | 80 | 0.125 (≈ 0.155 µM) | 0.125 (≈ 0.155 µM) | 0.125 (≈ 0.155 µM) | 0.125 (≈ 0.155 µM) | 0.125 (≈ 0.155 µM) | –
6 | CCNC[C@]1(O)[C@H](C)OC(O[C@@H]2[C@@H](C)[C@@H](O[C@@H]3O[C@H](C)C[C@H](N(C)C)[C@H]3O)[C@](C)(O)C[C@@H](C)NC[C@@H](C)[C@H](O)[C@](C)(O)[C@H](CC)OC(=O)[C@@H]2C)C[C@@]1(C)OC (stereo partly drawn) [syzx-10, (2R,3S,4R,5S,8R,10R,11R,12S,13S,14R)-13-[(2,6-dideoxy-3-C-methyl-3-O-methyl-4-C-[(ethylamino)methyl]-α-L-ribopyranosyl)oxy]-2-ethyl-3,4,10-trihydroxy-3,5,8,10,12,14-hexamethyl-11-[[3,4,6-trideoxy-3-(dimethylamino)-β-D-xylo-hexopyranosy]oxy]-1-oxa-7-azacycopentadecan-15-one] | – | 90 | 0.5 (≈ 0.631 µM) | 1 (≈ 1.26 µM) | 0.5 (≈ 0.631 µM) | ≤ 0.25 | 0.5 (≈ 0.631 µM) | –
7 | CC[C@@H]1OC(=O)[C@H](C)[C@H](OC2C[C@@](C)(OC)[C@](O)(CNC(C)C)[C@H](C)O2)[C@@H](C)[C@@H](O[C@@H]2O[C@H](C)C[C@H](N(C)C)[C@H]2O)[C@](C)(O)C[C@@H](C)NC[C@@H](C)[C@H](O)[C@]1(C)O (stereo partly drawn) [syzx-11] | – | 70 | ≤ 0.25 | 0.5 (≈ 0.62 µM) | ≤ 0.25 | ≤ 0.25 | 0.5 (≈ 0.62 µM) | –
8 | CC[C@@H]1OC(=O)[C@H](C)[C@H](OC2C[C@@](C)(OC)[C@](O)(CNCCOC)[C@H](C)O2)[C@@H](C)[C@@H](O[C@@H]2O[C@H](C)C[C@H](N(C)C)[C@H]2O)[C@](C)(O)C[C@@H](C)NC[C@@H](C)[C@H](O)[C@]1(C)O (stereo partly drawn) [syzx-25, (2R,3S,4R,5S,8R,10R,11R,12S,13S,14R)-13-[(2,6-dideoxy-3-C-methyl-3-O-methyl-4-C-[(2-methoxyethyl)amino-methyl]-α-L-ribopyranosyl)oxy]-2-ethyl-3,4,10-trihydroxy-3,5,8,10,12,14-hexamethyl-11-[[3,4,6-trideoxy-3-(dimethylamino)-β-D-xylo-hexopyranosy]oxy]-1-oxa-7-azacyclopentadecan-15-one] | – | – | ≤ 0.25 | ≤ 0.25 | ≤ 0.25 | ≤ 0.25 | 16 (≈ 19.5 µM) | –
9 | CC[C@@H]1OC(=O)[C@H](C)[C@H](OC2C[C@@](C)(OC)[C@](O)(CNCCOC)[C@H](C)O2)[C@@H](C)[C@@H](O[C@@H]2O[C@H](C)C[C@H](N(C)C)[C@H]2O)[C@](C)(O)C[C@@H](C)NC[C@@H](C)[C@H](O)[C@]1(C)O (stereo partly drawn) [syzx-58] | – | 80 | – | – | – | – | – | 16
10 | CCCNC[C@]1(O)[C@H](C)O[C@@H](O[C@H]2[C@H](C)[C@@H](O[C@@H]3O[C@H](C)C[C@H](N(C)C)[C@H]3O)[C@](C)(O)C[C@@H](C)N(CCC)C[C@H](C)[C@@H](O)[C@](C)(O)[C@@H](CC)OC(=O)[C@@H]2C)C[C@@]1(C)OC [syzx-101, (2R,3S,4R,5S,8R,10R,11R,12S,13S,14R)-13-[(2,6-dideoxy-3-C-methyl-3-O-methyl-4-C-[(n-propyl-amino)methyl]-α-L-ribopyranosyl)oxy]-2-ethyl-3,4,10-trihydroxy-3,5,8,10,12,14-hexamethyl-7-propyl-11-[[3,4,6-trideoxy-3-(dimethylamino)-β-D-xylo-hexopyranosy]oxy]-1-oxa-7-azacyclopentadecan-15-one] | 90% (9/10) | – | – | – | – | – | – | –
